The source of these data is patent US9856225B2, “Substituted phenazines as antimicrobial agents” (University of Florida Research Foundation, Incorporated, priority 2013, dated 2018).

Holding throughout (assay type): cell-based
The subject of assay [1] is Staphylococcus aureus (ATCC 25923). Description: MIC broth microdilution (CLSI), Luria Broth. To be noted: for fold more potent than compound 1: from MIC. The method, boiled down:
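Two-fold serial dilutions (0.10–100 μM, eleven points) in Luria Broth, each well inoculated with 10^5 cells from log-phase culture (OD600 0.5), per CLSI broth microdilution. DMSO vehicle up to 1% v/v as negative control; kanamycin positive control for the staphylococci.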

The test system of assay [2] is Acinetobacter baumannii (ATCC 19606) biofilm. Description: Biofilm inhibition, Mueller-Hinton broth, crystal violet. To be noted: A. baumannii ATCC 19606; for inhibition at 100 µM: Acinetobacter baumannii, ATCC19606, read-out: % Biofilm Inhibition at 100 μM. As for the experimental part:
Biofilm Inhibition Protocol for A. baumannii (ATCC 19606): In a 96-well plate, ten two-fold serial dilutions of each compound tested were made from the highest concentration tested (100 μM) in a final volume of 100 μL in Mueller-Hinton broth (one column served as a blank). Each well was inoculated with ˜7×10^6 colony forming units per milliliter (corresponding to an OD600 of 0.01 prepared directly from an overnight culture). A lid was placed on the 96-well plate which was wrapped in suran wrap, placed in a humidifying chamber and incubated under static conditions at 37° C. for 24 hours. Following incubation, the media and planktonic bacteria were then removed from 96-well plates and the wells were then washed with water. The bacterial biofilms within the microtiter wells were stained with 200 μL of an aqueous 0.1% crystal violet solution that was allowed to stand for 10-20 minutes. The crystal violet stain was then removed, the wells were rinsed with water and dried. The crystal violet stain that remained on the inside of the wells (i.e., stained bacterial biofilm) on the inside of the wells was solubilized by the addition of 200 μL ethanol and absorbance was read at OD540 using a spectrophotometer. NOTE: The concentration range tested for each compound was 0.2-100 μM. Single data points for all compounds and DMSO controls were tested in two replicate rows in 96-well plates and corresponding absorbance readings were averaged for the quantification of planktonic growth and biofilm formation. Reported percent biofilm inhibition was determined by the comparison of compound treated wells (the average of the two replicate wells) versus vehicle control wells without compound following background subtraction (i.e., an empty, untreated well) and reported from 2 to 4 independent overnight cultures. DMSO was serially diluted at the same concentration as test compounds with a top concentration of 1% v/v.
The bromophenazines were also evaluated against the Gram-negative bacterium Acinetobacter baumannii in order to identify biofilm modulating small molecules against this emerging pathogen. Acinetobacter baumannii is notorious for its ability to persist as bacterial biofilms on hospital surfaces, giving rise to many multidrug-resistant nosocomial infections. Clinical isolates of A. baumannii have been identified that are resistant to every class of antibiotic clinically used. The bromophenazines were evaluated against Acinetobacter baumannii ATCC 19606 in biofilm inhibition assays. Bromophenazines were allowed to incubate in 96-well plates with Acinetobacter baumannii (˜7×10^6 CFUmL^−1 by adjusting an overnight culture to an OD600˜0.01) for 24 hours at 37° C. using Mueller-Hinton broth followed by spectrophometer readings of each plate to evaluate planktonic growth (OD600) and biofilm formation (OD540 after crystal violet stain of biofilms inside microtiter wells). […] This biofilm inhibition with activation of planktonic growth activity was dose-dependent with bromophenazine 17a (see FIG. 20).

Assay [3] concerns Acinetobacter baumannii (ATCC 19606) pre-formed biofilm. Description: Biofilm dispersion, crystal violet. Conditions: for percent biofilm dispersion at 100 µM: Acinetobacter baumannii, ATCC19606, 24 h. As for the experimental part:
Biofilm Dispersion Protocol for A. baumannii (ATCC 19606): To a 96-well plate was added a volume of 100 μL Mueller-Hinton broth that was inoculated with ˜7×10^6 colony forming units per milliliter (corresponding to an OD600 of 0.01 prepared directly from an overnight culture). Two columns of wells were left blank to serve as our background wells. A lid was placed on the 96-well plate which was wrapped in suran wrap, placed in a humidifying chamber and incubated under static conditions at room temperature for 24 hours to establish bacterial biofilms. Following this initial incubation at room temperature, the media and planktonic bacteria were then removed from 96-well plates and the wells were then washed with water. Fresh medium was then added and series of ten two-fold serial dilutions of text compound were made in the 96-well plate using a multichannel pipette. A lid was then placed on 96-well plate which was then wrapped in suran wrap, placed in a humidifying chamber and incubated under static conditions at 37° C. for 24 hours. Following this second incubation to test compounds against pre-formed biofilms, the media and planktonic bacteria were again removed from 96-well plates and the wells were then washed with water. The bacterial biofilms within the microtiter wells were stained with 200 μL of an aqueous 0.1% crystal violet solution that was allowed to stand for 10-20 minutes. The crystal violet stain was then removed, the wells were rinsed with water and dried. The crystal violet stain that remained on the inside of the wells (i.e., stained bacterial biofilm) on the inside of the wells was solubilized by the addition of 200 μL ethanol and absorbance was read at OD540 using a spectrophotometer. Note: The concentration range tested for each compound was 0.2-100 μM. Single data points for all compounds and DMSO controls were tested in two replicate rows in 96-well plates and corresponding absorbance readings were averaged for the quantification of remaining bacterial biofilms. Reported percent dispersion of biofilms was determined by the comparison of compound treated wells (the average of the two replicate wells) versus vehicle control wells without compound following background subtraction (i.e., an empty, untreated well) and reported from two independent experiments. DMSO was serially diluted at the same concentration as test compounds with a top concentration of 1% v/v.

The mark [4] stands for this setting: Staphylococcus aureus, ATCC25923, Table 2, S. aureus ATCC 25923, Luria Broth, read-out: MIC.
Where [5] appears, read: Table 2, S. aureus ATCC 25923, Luria Broth, read-out: MIC.
Setting [6] is: A. baumannii ATCC 19606, read-out: % Biofilm Dispersion at 100 μM.
Setting [7] is: Staphylococcus aureus, ATCC25923, Table 1, ATCC 25923, range tested 0.10 to 100 μM, read-out: Staphylococcus aureus MIC.
The mark [8] stands for this setting: Staphylococcus aureus, ATCC25923, Table 1, ATCC 25923, read-out: Staphylococcus aureus MIC.
Setting [9] is: read-out: % Biofilm Dispersion at 100 μM, A. baumannii ATCC 19606.

Like-named read-outs stand apart in the source and are kept apart here.

For `CCC(=O)Oc1c(Br)cc(Br)c2nc3ccccc3nc12` [Compound 4a], the minimum inhibitory concentration (MIC) in assay [1] (setting [4]) lay within 0.78 to 1.56 µM. Also, in assay [1] (setting [5]), the minimum inhibitory concentration (MIC) was 1.56 µM. Further, in assay [2], the Phenotype result is on record as “antibacterial” and the inhibition at 100 µM came to 99 ± 1%. Also, the “Biofilm Dispersal Agent?” value in assay [3] (A. baumannii ATCC 19606) was “Yes”. For the same compound, in assay [3] (setting [6]), the percent biofilm dispersion at 100 µM is 53 to 57%.
Turning to `O=C(CCCC(=O)Oc1c(Br)cc(Br)c2nc3ccccc3nc12)Oc1c(Br)cc(Br)c2nc3ccccc3nc12` [Compound 5a], in assay [1] (setting [4]), the MIC is above 100 µM. In addition, the inhibition at 100 µM in assay [2] came to 59 ± 11%. In assay [3] (A. baumannii ATCC 19606), the “Biofilm Dispersal Agent?” value was “Yes”. Moreover, the percent biofilm dispersion at 100 µM in assay [3] (setting [6]) came to 30 ± 3%.
As to `O=C(OCCc1ccccc1)Oc1c(Br)cc(Br)c2nc3ccccc3nc12` [Compound 8a], the minimal inhibitory concentration (MIC) in assay [1] (setting [4]) lay in the range of 0.78 to 1.56 µM. The minimum inhibitory concentration (MIC) in assay [1] (setting [5]) was determined as 1.56 µM. Also, in assay [2], the Phenotype entry was “antibacterial” and the inhibition at 100 µM stood at 97 ± 2%. In assay [3] (A. baumannii ATCC 19606), the “Biofilm Dispersal Agent?” value was “Yes”. Also, the percent biofilm dispersion at 100 µM in assay [3] (setting [6]) amounted to 32 ± 4%.
On to `Oc1c(Br)cc(Br)c2nc3ccccc3nc12` [Compound 11, 2,4-Dibromophenazin-1-ol], for which the MIC worked out at 1.56 µM in assay [1] (setting [7]), 0.55 µg/mL in assay [1] (setting [8]) and 1.56 µM in assay [1] (setting [4]). The “fold more potent than compound 1” value in assay [1] (Staphylococcus aureus) is 32 fold. Further, the Phenotype entry in assay [2] is reported as “antibacterial”. Also, the inhibition at 100 µM in assay [2] amounted to 98 ± 1%. Moreover, the “Biofilm Dispersal Agent?” value in assay [3] (A. baumannii ATCC 19606) is listed as “Yes”. In addition, in assay [3] (setting [9]), the percent biofilm dispersion at 100 µM is 53 to 57%.
In the case of `O=C(Oc1c(Br)cc(Br)c2nc3ccccc3nc12)c1ccc(Br)cc1` [Compound 12a], the minimal inhibitory concentration (MIC) in assay [1] (setting [4]) is above 100 µM. Moreover, the inhibition at 100 µM in assay [2] was 34 ± 4%. For the same compound, the “Biofilm Dispersal Agent?” value in assay [3] (A. baumannii ATCC 19606) is “No”. Besides, the percent biofilm dispersion at 100 µM in assay [3] (setting [6]) worked out at 5 ± 12%.
With `O=C(Oc1c(Br)cc(Br)c2nc3ccccc3nc12)c1ccc(Cl)cc1` [Compound 14a], in assay [1] (setting [4]), the MIC was above 100 µM. For the same compound, the inhibition at 100 µM in assay [2] worked out at 25 ± 3%. The “Biofilm Dispersal Agent?” value in assay [3] (A. baumannii ATCC 19606) is recorded as “No”. For the same compound, the percent biofilm dispersion at 100 µM in assay [3] (setting [6]) stood at 7 ± 2%.
As to `O=C(Oc1c(Br)cc(Br)c2nc3ccccc3nc12)c1cccc([N+](=O)[O-])c1` [Compound 15a], the MIC in assay [1] (setting [4]) was 0.78 to 1.56 µM; in assay [1] (setting [5]) it was 1.56 µM. Also, the inhibition at 100 µM in assay [2] came out at 25 ± 6%. In addition, the “Biofilm Dispersal Agent?” value in assay [3] (A. baumannii ATCC 19606) was “Yes”. For the same compound, the percent biofilm dispersion at 100 µM in assay [3] (setting [6]) came out at 36 ± 2%.
On to `Cc1ccc(C(=O)Oc2c(Br)cc(Br)c3nc4ccccc4nc23)cc1` [Compound 18a], for which, in assay [1] (setting [4]), the minimal inhibitory concentration (MIC) is above 100 µM. Moreover, in assay [2], the Phenotype result was “inactive” and the inhibition at 100 µM was 1 ± 5%. Moreover, in assay [3] (A. baumannii ATCC 19606), the “Biofilm Dispersal Agent?” value was “No”. Further, the percent biofilm dispersion at 100 µM in assay [3] (setting [6]) is -1 ± 6%.
For the compound `CC(=O)Oc1c(Br)cc(Br)c2nc3ccccc3nc12` [Compound 21, 2,4-Dibromophenazin-1-yl acetate], the figures for the minimal inhibitory concentration (MIC) in assay [1] (setting [7]), in assay [1] (setting [8]) and in assay [1] (setting [4]) were 0.78 to 1.56 µM, 0.31 to 0.62 µg/mL and 0.78 to 1.56 µM, respectively. The “fold more potent than compound 1” value in assay [1] (Staphylococcus aureus) is listed as 32 fold. Also, in assay [2], the Phenotype result is reported as “antibacterial”. The inhibition at 100 µM in assay [2] is 98 ± 1%. The “Biofilm Dispersal Agent?” value in assay [3] (A. baumannii ATCC 19606) is on record as “Yes”. Besides, in assay [3] (setting [9]), the percent biofilm dispersion at 100 µM was in the range of 53 to 57%.
Take `O=C(Oc1c(Br)cc(Br)c2nc3ccccc3nc12)c1ccccc1` [Compound 23, 2,4-Dibromophenazin-1-yl benzoate]: the MIC in assay [1] (setting [7]) was 1.56 µM; in assay [1] (setting [8]), 0.72 µg/mL; in assay [1] (setting [4]), 1.56 µM. Also, the inhibition at 100 µM in assay [2] was found to be 51 ± 6%. Also, the “Biofilm Dispersal Agent?” value in assay [3] (A. baumannii ATCC 19606) is on record as “No”. In assay [3] (setting [9]), the percent biofilm dispersion at 100 µM was -1 ± 6%.
On to `O=C(Oc1c(Br)cc(Br)c2nc3ccccc3nc12)c1ccco1` [Compound 23a], for which the minimum inhibitory concentration (MIC) in assay [1] (setting [4]) is 0.78 to 1.56 µM; in assay [1] (setting [5]), 0.78 µM. Besides, the Phenotype result in assay [2] is recorded as “antibacterial”. Moreover, the inhibition at 100 µM in assay [2] is 86 ± 12%. In addition, the “Biofilm Dispersal Agent?” value in assay [3] (A. baumannii ATCC 19606) is “No”. In assay [3] (setting [6]), the percent biofilm dispersion at 100 µM turned out to be 17 ± 14%.
`O=C(OCC(Cl)(Cl)Cl)Oc1c(Br)cc(Br)c2nc3ccccc3nc12` [Compound 27a]: the minimal inhibitory concentration (MIC) was 0.78 to 1.56 µM in assay [1] (setting [4]) and 0.78 µM in assay [1] (setting [5]). The Phenotype entry in assay [2] is listed as “antibacterial”. Also, the inhibition at 100 µM in assay [2] is 99 ± 1%. For the same compound, the “Biofilm Dispersal Agent?” value in assay [3] (A. baumannii ATCC 19606) is on record as “Yes”. Further, the percent biofilm dispersion at 100 µM in assay [3] (setting [6]) was found to be 38 ± 6%.
In the case of `COC(=O)Oc1c(Br)cc(Br)c2nc3ccccc3nc12` [Compound 28a], the MIC in assay [1] (setting [4]) fell in the range of 0.78 to 1.56 µM. For the same compound, the minimum inhibitory concentration (MIC) in assay [1] (setting [5]) came out at 1.56 µM. In addition, in assay [2], the Phenotype result is listed as “antibacterial” and the inhibition at 100 µM was found to be 99 ± 1%. The “Biofilm Dispersal Agent?” value in assay [3] (A. baumannii ATCC 19606) is given as “Yes”. The percent biofilm dispersion at 100 µM in assay [3] (setting [6]) was in the range of 53 to 57%.
